# Where two headings read alike, the source gives them in different places.
# Columns and labels:
# DHFR = settings: cited from earlier work
# human DHFR = molecular target: T1, human DHFR (Homo sapiens, UniProt P00374); assay: Human DHFR enzyme inhibition assay; format: biochemical
# T1 sequence (P00374 1-187): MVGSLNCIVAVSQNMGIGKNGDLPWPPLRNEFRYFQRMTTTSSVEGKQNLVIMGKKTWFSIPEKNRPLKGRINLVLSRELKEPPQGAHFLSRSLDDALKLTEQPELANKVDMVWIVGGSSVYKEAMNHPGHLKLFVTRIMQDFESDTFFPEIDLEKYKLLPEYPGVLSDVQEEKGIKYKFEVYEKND
molecule,measurement,setting,value
"CCc1nc(N)nc(N)c1C#CCc1cc(OC)c(OC)c(OC)c1 [Compound 35, 2,4-diamino-5-(3-(3,4,5-trimethoxyphenyl)prop-1-ynyl)-6-ethylpyrimidine]",IC50,human DHFR,< 100 nM
N-α-(4-amino-4-deoxypteroyl)-N δ-hemiphthaloyl-L-ornithine [PT523],IC50,DHFR; classical inhibitors,12.2 nM
